SMILES strings stand for the structures.

The test system of series [1] is subjects. The experiment in a line: Example 1 dose titration study: continuous telemetry of heart rate (daily minimum heart rate, HRmin). Format: in vivo, human. As to the method:
(§1) Increasing doses of Compound A starting at 0.25 mg o.d. and ending at the maximal therapeutic dose of 10 mg o.d. are given to 28 subjects over 12 days as specified in Table 1 below. A placebo group and a positive control group receiving the 10 mg final therapeutic dose are also included in the study (each of 14 subjects).
On Day −1 (baseline), subjects undergo baseline assessments including 24 hour holter monitoring and telemetry assessments. Subjects remain on continuous telemetry, starting before breakfast on Day −1 and proceeding throughout the administration period up to Day 13 (24 hour after the last dose). Over this 13 day duration of continuous heart rate collection for each subject, one heart rate value is obtained every minute (‘minute unit heart rate’), representing the average heart rate value over that minute. The heart rate database for each subject contains approximately […] data points (13 days×24 hr×60 min).
The daily chronotropic effect is defined as the percent decrease in HRmin between two consecutive days. It is calculated on days 1 to 12.
(§2) Cardiac conduction intervals: arrhythmia monitoring includes the frequency and duration of sinus pauses (>2 sec and >3 sec) and atrio-ventricular blocks. Frequency and duration of atrial and ventricular ectopy and sinus rhythm are also recorded. The daily chronotropic effect is defined as the percent decrease in HRmin, (minimum heart rate) between two consecutive days. It is calculated on days 1 to 12.
The variation in daily minimum heart rate, HRmin (minimum of 24 hourly mean heart rates) over the course of the study is shown in FIG. 1.

The subject of series [2] is subjects. Description: Example 1 dose titration study: Holter monitoring of ectopies (SVEs, VEs) and pauses >2 secs. The format is in vivo, human. As to conditions: for subjects with total number of SVEs 0-10 / subjects with total number of SVEs 11-20 / subjects with total number of SVEs 21-50 / subjects with total number of SVEs >50 / subjects with total number of VEs 0-5 / subjects with total number of VEs 6-10 / subjects with total number of VEs 11-30 / subjects with total number of VEs >30 / subjects with total number of pauses >2 secs: 0 / subjects with total number of pauses >2 secs: 1 / subjects with total number of pauses >2 secs: >1: any time during the 12-day treatment period. Here is the method:
as §1
Pharmacodynamic and safety assessments are performed up to 24 hours post last dose. Heart rhythm is assessed via 24 hr continuous holter monitoring on Day −1, Day 1, Day 11 and Day 12. For each dosing for each subject, the drug is administered as closely as practically possible to the time administered on Day −1. Safety assessments includes physical examinations, vital signs and body measurements, 12-lead ECG evaluations, standard clinical laboratory evaluations hematology, blood chemistry, urinalysis, adverse event and serious adverse event monitoring.
24-hour continuous Holter-ECG data are captured via a digital Holter monitor (12-lead, on Days […]), and transferred for interpretation and reporting. Holter monitoring starts approximately at 7:00 and the time of dose administration is regarded as the time “0 hours”. Holter “cuts” are derived from the dataset at 1 hour intervals starting from Day −1 and continuing for 24 hours or the end of the cleaned Holter monitoring dataset.
as §2

Series [3] relates to healthy subjects. The experiment in a line: Absolute lymphocyte count after multiple daily doses (FIG. 2). The format is in vivo, human. The text has this:
Preferred medications comprise medication for patients suffering from chronic longterm diseases, such as autoimmune diseases, e.g. multiple sclerosis, Polymyositis, lupus nephritis, rheumatoid arthritis, inflammatory bowel diseases or psoriasis. In an embodiment of the invention, medications are medications for patients suffering from multiple sclerosis, for example relapse remitting multiple sclerosis (RRMS) or primary progressive multiple sclerosis (PPMS), e.g. for patients suffering from RRMS.

Series [4] deals with healthy subjects. As to conditions: administration of 1.25 mg; cited from earlier work.
For a further series, the system named is multiple sclerosis. Conditions: humans; cited from earlier work.
[5] abbreviates: 10 mg daily from Day 1 (N = 14).
Setting [6] is: DT#1 titration 0.25 to 10 mg (N = 14).
Setting [7] is: DT#2 titration (Fibonacci) 0.25 to 10 mg (N = 14).

For the compound `CCc1cc(/C(C)=N/OCc2ccc(C3CCCCC3)c(C(F)(F)F)c2)ccc1CN1CC(C(=O)O)C1` [Compound A, 1-{4-[1-(4-cyclohexyl-3-trifluoromethyl-benzyloxyimino)-ethyl]-2-ethyl-benzyl}-azetidine-3-carboxylic acid], in the series on subjects [1] (10 mg treatment group, from Day 1 to Day 2), the “increase in heart rate” value is listed as “approximately 5 BPM”. Moreover, the “decrease in heart rate” value with subjects [1] (10 mg treatment group, from Day -1 to Day 1) is “approximately 8 BPM”. In the series with subjects [1] (10 mg treatment group, from day 2 to day 4), the “further increase in heart rate” value was “approximately 3 BPM”. In the series with subjects [1] (both titration groups (DT#1, DT#2), first seven days of the dose titration), the “gradual decrease in heart rate per day” value was 1-2 BPM per day. Also, in the series with subjects [1] (both titration groups (DT#1, DT#2), over the first seven days of the dose titration), the “total reduction in heart rate” value is reported as 4-5 BPM. Moreover, the “heart rate recovery after day 7” value in the series with subjects [1] (both titration groups, over the next 2-3 days after the first seven days) was “the heart rate increased to approximately the placebo level”. In addition, in the series with subjects [1] (titration groups, 10 mg dose initiated on Days 8 and 9, compared to preceding days), the “dip in heart rate on initiation of the 10 mg dose after titration” value is recorded as “did not result in a significant dip in heart rate”. In the series on subjects [1] (titration regimen vs Day 1 of 10 mg dose treatment initiation), the “effect of dose titration regimen on negative chronotropic effect” value is recorded as “attenuates the negative chronotropic effect”. Besides, in the series on subjects [2] (setting [5]), the “subjects with total number of SVEs 0-10” value is 1 (7.1%) n (%), the “subjects with total number of SVEs 11-20” value is 2 (14.3%) n (%), the “subjects with total number of SVEs 21-50” value is listed as 5 (35.7%) n (%) and the “subjects with total number of SVEs >50” value is reported as 6 (42.9%) n (%). Moreover, in the series on subjects [2] (setting [5]), the “subjects with total number of VEs 0-5” value is listed as 6 (42.9%) n (%), the “subjects with total number of VEs 6-10” value is 4 (28.6%) n (%), the “subjects with total number of VEs 11-30” value is given as 1 (7.1%) n (%) and the “subjects with total number of VEs >30” value was 3 (21.4%) n (%). Besides, in the series on subjects [2] (setting [5]), the “subjects with total number of pauses >2 secs: 0” value (“subjects … of pauses >2 secs: 0” below) is recorded as 10 (71.4%) n (%), the “subjects with total number of pauses >2 secs: 1” value (shortened to “subjects … of pauses >2 secs: 1”) is 1 (7.1%) n (%) and the “subjects with total number of pauses >2 secs: >1” value (“subjects with total number … >1” for short) was 3 (21.4%) n (%). In addition, in the series with subjects [2] (setting [6]), the “subjects with total number of SVEs 0-10” value is 1 (7.1%) n (%), the “subjects with total number of SVEs 11-20” value was 3 (21.4%) n (%), the “subjects with total number of SVEs 21-50” value is given as 2 (14.3%) n (%) and the “subjects with total number of SVEs >50” value was 8 (57.1%) n (%). Also, in the series on subjects [2] (setting [6]), the “subjects with total number of VEs 0-5” value is 3 (21.4%) n (%), the “subjects with total number of VEs 6-10” value is 5 (35.7%) n (%), the “subjects with total number of VEs 11-30” value is 4 (28.6%) n (%) and the “subjects with total number of VEs >30” value is 2 (14.3%) n (%). In addition, in the series on subjects [2] (setting [6]), the “subjects … of pauses >2 secs: 0” value is 10 (71.4%) n (%), the “subjects … of pauses >2 secs: 1” value is 1 (7.1%) n (%) and the “subjects with total number … >1” value is reported as 3 (21.4%) n (%). For the same compound, in the series on subjects [2] (setting [7]), the “subjects with total number of SVEs 0-10” value is 0 n (%), the “subjects with total number of SVEs 11-20” value is on record as 1 (7.1%) n (%), the “subjects with total number of SVEs 21-50” value is reported as 4 (28.6%) n (%) and the “subjects with total number of SVEs >50” value is reported as 9 (64.3%) n (%). In the series on subjects [2] (setting [7]), the “subjects with total number of VEs 0-5” value is 3 (21.4%) n (%), the “subjects with total number of VEs 6-10” value was 2 (14.3%) n (%), the “subjects with total number of VEs 11-30” value is 5 (35.7%) n (%) and the “subjects with total number of VEs >30” value is reported as 4 (28.6%) n (%). Further, in the series with subjects [2] (setting [7]), the “subjects … of pauses >2 secs: 0” value is on record as 13 (92.9%) n (%), the “subjects … of pauses >2 secs: 1” value is 0 n (%) and the “subjects with total number … >1” value was 1 (7.1%) n (%). In addition, in the series with subjects [2] (second titration regimen DT#2 (Fibonacci sequence) vs the other active treatment regimens), the “number of heart pauses greater than 2 seconds, comparison of regimens” value is reported as “lower number of heart pauses greater than 2 seconds”. The “absolute lymphocyte count in the blood” value with healthy subjects [3] is listed as “reduces the absolute lymphocyte count”.

For `CCCCCCCCc1ccc(CCC(N)(CO)CO)cc1` [FTY720], in the series with healthy subjects [4], the “decrease in heart rate” value is reported as “approximately 8 beats/min (BPM)”. The “efficacy in the treatment of multiple sclerosis” value with multiple sclerosis is recorded as “has been demonstrated in humans”.

(Values after patent US8492441B2, “Dosage regimen of an S1P receptor agonist” (Novartis AG, priority 2008, dated 2013).)
